Experimental data published in ChEMBL document CHEMBL5344474, “Molecular editing of NSC-666719 enabling discovery of benzodithiazinedioxide-guanidines as anticancer agents” (RSC Med Chem, 2024).

Assays:
[1] = system: MCF7; assay: Antiproliferative activity against human MCF7 cells incubated for 72 hrs by MTT assay; conditions: MCF7, 72 h
[2] = system: MDA-MB-231; assay: Antiproliferative activity against human MDA-MB-231 cells incubated for 72 hrs by MTT assay; conditions: MDA-MB-231, 72 h
[3] = system: HCT-116; assay: Antiproliferative activity against human HCT-116 cells incubated for 72 hrs by MTT assay; conditions: HCT-116, 72 h
[4] = system: SCC-9; assay: Antiproliferative activity against human SCC-9 cells incubated for 72 hrs by MTT assay; conditions: SCC-9, 72 h
[5] = Cytotoxicity against HEK293 cells incubated for 72 hrs by MTT assay; conditions: human
[6] = Selectivity index, ratio of IC50 for HEK293 cells to IC50 for human MCF7 cells; conditions: HEK293 cells versus MCF7 cells
[7] = Selectivity index, ratio of IC50 for HEK293 cells to IC50 for human MDA-MB-231 cells; conditions: HEK293 cells versus MDA-MB-231 cells
[8] = Selectivity index, ratio of IC50 for HEK293 cells to IC50 for human HCT-116 cells; conditions: HEK293 cells versus HCT-116 cells
[9] = system: MCF7; assay: cells; conditions: Homo sapiens, MCF7, 48 h, read-out: Activity
Description: Induction of apoptosis in human MCF7 cells assessed as viable cells at 0.5 uM incubated for 48 hrs by Annexin-V/FITC staining based flow cytometry analysis (Rvb = 99.3 +/- 0.12 %)

[10] = system: MCF7; assay: cells; conditions: Homo sapiens, MCF7, 48 h, read-out: Activity; remark: listed apart in the source
Description: Induction of apoptosis in human MCF7 cells assessed as viable cells at 2 uM incubated for 48 hrs by Annexin-V/FITC staining based flow cytometry analysis (Rvb = 99.3 +/- 0.12 %)

[11] = system: MCF7; assay: cells; conditions: Homo sapiens, MCF7, 48 h, read-out: Activity; remark: listed apart in the source
Description: Induction of apoptosis in human MCF7 cells assessed as viable cells at 0.8 uM incubated for 48 hrs by Annexin-V/FITC staining based flow cytometry analysis (Rvb = 99.3 +/- 0.12 %)

Cc1cc2c(cc1Cl)SC(/N=C(/N)Nc1ccnc3cc(Cl)ccc13)=NS2(=O)=O
IC50 [1]: 800 nM | IC50 [2]: 2100 nM | IC50 [3]: 2800 nM | IC50 [4]: 1000 nM | IC50 at 72 h [5]: 65000 nM | selectivity ratio [6]: > 65 | selectivity ratio [7]: > 65 | selectivity ratio [8]: > 65 | viability at 0.5 µM [9]: 64.9% | viability at 2 µM [10]: 14.8% | viability at 0.8 µM [11]: 27.4%
